Assay results as given in patent US20260158156A1, “SPECIFIC CONJUGATION OF AN ANTIBODY” (priority 2021, published 2026).

System: 8226-2A1 cells
Assay: MTT in vitro cytotoxicity assay of BCMA antibody conjugates, 8226-2A1
Type: cell-based
Conditions: 15000 cells, 96 h incubation
Experimental: The cell lines used in the cytotoxicity assays were (1). […] To run the assay, the cells (180 μl, 6000 cells) were added to each well in a 96-well plate and incubated for 24 hours at 37° C. with 5% CO2. Next, the cells were treated with test compounds (20 μl) at various concentrations in appropriate cell culture medium (total volume, 0.2 mL). The control wells contain cells and the medium but lack the test compounds. […] MTT (5 mg/mL) was then added to the wells (20 μl) and the plates were incubated for 1.5 hr at 37° C. The medium was carefully removed and DMSO (180 μl) was added afterward. After it was shaken for 15 min, the absorbance was measured at 490 nm and 570 nm with a reference filter of 620 nm. The inhibition % was calculated according to the following equation: inhibition %=[1−(assay-blank)/(control-blank)]×100.

Structure (SMILES): CC(=O)O[C@H]1C(=O)[C@@]2(C)[C@H]([C@H](OC(=O)c3ccccc3)[C@]3(O)C[C@H](OC(=O)[C@H](O)[C@@H](NC(=O)c4ccccc4)c4ccccc4)C(C)=C1C3(C)C)[C@]1(OC(C)=O)CO[C@@H]1C[C@@H]2O [Paclitaxel]
- IC50: 3.71 nM
